In patent US4672054A, “Process for the preparation of angiotensin-II analogues substituted in the 1-, 5- and 8- positions” (Richter Gedeon Vegyeszeti Gyar Rt., priority 1984, dated 1987):
Where two headings read alike, the source gives them in different places. Where a SMILES comes first, the peptide text is derived from it. [ ]: non-standard residue; d: D form. The star is where a group is joined. Gly(cPent) = N[C@H](C(=O)O)C1CCCC1; Chg = N[C@H](C(=O)O)C1CCCCC1; Lac = C[C@H](O)C(=O)O; Glycolyl = O=C(CO)*; Sar = CNCC(=O)O

Tests used:
[1] = system: isolated rabbit aorta vessel preparate; assay type: cell-based
Method: (§1) The octapeptides of the formula (I) are purified in a manner known per se, preferably by cellulose ion exchange chromatography. As a result, compounds are generally obtained as lyophilized powders, which can be converted into the corresponding acid addition salts or complexes. The inhibiting effect of the compounds of the formula (I) on the aldosterone production and vasoconstriction was tested in in vitro experiments.
In the latter test the inhibition of vasoconstriction induced by AII is measured on isolated rabbit aorta vessel preparate [J. Pharmacol. Exp. Ther., 108, 129 (1953)].

[2] = system: aldosterone production; assay type: cell-based
Method: as §1

[3] = system: aldosterone release; conditions: Eur. J. Clin. Pharm., 23, 7 (1982); cited from earlier work
[4] = Eur. J. Clin. Pharm., 23, 7 (1982); cited from earlier work
[5] = system: awake rats; assay: hypotensive activity in vivo on awake rats (modified method by Pals), AII challenge; design: species or system rat; conditions: peptide 1 mg/kg subcutaneously, 1.0 μg/kg AII intravenously from the fifth minute over three hours
Method: The hypotensive activity of the new compounds was tested in vivo on awake rats, according to the modified method by Pals [Circ. Res. 29, 664 (1971)].
The results are illustrated in FIG. 1.
At first a dose--effect curve was registered for AII on rats. The peptides were administered subcutaneously, in 1 mg/kg doses. In the fifth minute after administration and repeatedly in the next three hours 1.0 μg/kg of AII was added intravenously. The statistical evalulation was performed by variancy analysis.

[6] = system: awake rats; assay: temporary (initial) hypertensive activity on awake rats; assay type: in vivo, rat; conditions: administered into the jugular vein every 20 minutes
Method: The temporary hypertensive activity of the AII analogues was tested also on awake rats. AII analogues were administered into the jugular vein in every 20 minutes. The results were evaluated by variancy analysis. The comparative results obtained on [Sar^1, Chg^5, Lac^8 ]-AII are shown on FIG. 2.

| Molecule | vasoconstriction inhibition, pA2 [1] | inhibition of aldosterone production pA2 [2] | further results |
| --- | --- | --- | --- |
| CC[C@H](C)[C@H](NC(=O)[C@H](Cc1ccc(O)cc1)NC(=O)[C@@H](NC(=O)[C@H](CCCNC(=N)N)NC(=O)CNC)C(C)C)C(=O)N[C@@H](Cc1c[nH]cn1)C(=O)N1CCC[C@H]1C(=O)O[C@@H](C)C(=O)O [Sar^1, Lac^8 --AII, reference compound] | 11.02 | 9.649 | – |
| CNCC(=O)N[C@@H](CCCNC(=N)N)C(=O)N[C@H](C(=O)N[C@@H](Cc1ccc(O)cc1)C(=O)N[C@H](C(=O)N[C@@H](Cc1c[nH]cn1)C(=O)N1CCC[C@H]1C(=O)O[C@@H](C)C(=O)O)C1CCCCC1)C(C)C [Sar^1, Chg^5, Lac^8 --AII] (H-[Sar]RVY[Chg]HP[Lac]-OH) | 11.29 | 10.390 | – |
| [Sar^1, Thr^8 ]-AII | – | – | aldosterone release inhibiting effect [3]: no aldosterone release inhibiting effect; agonistic activity [4]: small |
| CC[C@H](C)[C@H](NC(=O)[C@@H]1CCCN1C(=O)[C@H](Cc1c[nH]cn1)NC(=O)[C@@H](NC(=O)[C@H](Cc1ccc(O)cc1)NC(=O)[C@@H](NC(=O)[C@H](CCCNC(=N)N)NC(=O)CON)C(C)C)[C@@H](C)CC)C(=O)O [OGly^1, Ile^8 --AII, reference compound] | – | 7.94 | – |
| CNCC(=O)N[C@@H](CCCNC(=N)N)C(=O)N[C@H](C(=O)N[C@@H](Cc1ccc(O)cc1)C(=O)N[C@H](C(=O)N[C@@H](Cc1c[nH]cn1)C(=O)N1CCC[C@H]1C(=O)O[C@@H](C)C(=O)O)C1CCCC1)C(C)C [Sar^1, Cpg^5, Lac^8 --AII] (H-[Sar]RVY[Gly(cPent)]HP[Lac]-OH) | 11.09 | 9.649 | – |
| CNCC(=O)N[C@@H](CCCNC(=N)N)C(=O)N[C@H](C(=O)N[C@@H](Cc1ccc(O)cc1)C(=O)N[C@H](C(=O)N[C@@H](Cc1c[nH]cn1)C(=O)N1CCC[C@H]1C(=O)N[C@@H](C)C(=O)O)C1CCCCC1)C(C)C [Sar^1, Chg^5, Ala^8 --AII, Sar^1, Chg^5, Ala^8 -AII] | 11.18 | 9.981 | duration of hypotensive activity compared with Saralasin (FIG. 1) [5]: signicantly more prolonged hypotensive activity than Saralasin |
| CNCC(=O)N[C@@H](CCCNC(=N)N)C(=O)N[C@H](C(=O)N[C@@H](Cc1ccc(O)cc1)C(=O)N[C@H](C(=O)N[C@@H](Cc1c[nH]cn1)C(=O)N1CCC[C@H]1C(=O)N[C@@H](C)C(=O)O)C1CCCC1)C(C)C [Sar^1, Cpg^5, Ala^8 --AII] | 9.42 | 9.933 | – |
| CC(C)[C@H](NC(=O)[C@H](CCCNC(=N)N)NC(=O)[C@H](C)O)C(=O)N[C@@H](Cc1ccc(O)cc1)C(=O)N[C@H](C(=O)N[C@@H](Cc1c[nH]cn1)C(=O)N1CCC[C@H]1C(=O)O[C@@H](C)C(=O)O)C1CCCC1 [Lac^1, Cpg^5, Lac^8 --AII] (H-[Lac]RVY[Gly(cPent)]HP[Lac]-OH) | 8.52 | 8.392 | – |
| CNCC(=O)N[C@@H](CCCN=C(N)N)C(=O)N[C@H](C(=O)N[C@@H](Cc1ccc(O)cc1)C(=O)N[C@H](C(=O)N[C@@H](Cc1cnc[nH]1)C(=O)N1CCC[C@H]1C(=O)N[C@@H](C)C(=O)O)C(C)C)C(C)C [Sar^1, Val^5, Ala^8 --AII, Saralasin, reference compound] | – | – | vasoconstriction inhibition, pA2 ([1]; AII-induced vasoconstriction, isolated rabbit aorta, pA2): 11.10; inhibition of aldosterone production pA2 ([2]; in vitro, pA2): 9.634 |
| CC(C)[C@H](NC(=O)[C@H](CCCNC(=N)N)NC(=O)CO)C(=O)N[C@@H](Cc1ccc(O)cc1)C(=O)N[C@H](C(=O)N[C@@H](Cc1c[nH]cn1)C(=O)N1CCC[C@H]1C(=O)O[C@@H](C)C(=O)O)C1CCCCC1 [HOAc^1, CHg^5, Lac^8 --AII] (Glycolyl-RVY[Chg]HP[Lac]-OH) | 9.53 | 8.614 | – |
| CCOC(=O)[C@H](C)OC(=O)[C@@H]1CCCN1C(=O)[C@H](Cc1c[nH]cn1)NC(=O)[C@@H](NC(=O)[C@H](Cc1ccc(O)cc1)NC(=O)[C@@H](NC(=O)[C@H](CCCNC(=N)N)NC(=O)CNC)C(C)C)[C@@H](C)CC [Sar^1, Lac^8 --AII--OEt, reference compound] | – | 9.27 | – |
| Sar^1, HMV^8 --AII [reference compound] | – | – | inhibition of aldosterone production pA2 ([2]; in vitro, pA2): 10.589 |
| CNCC(=O)N[C@@H](CCCN=C(N)N)C(=O)N[C@H](C(=O)N[C@@H](Cc1ccc(O)cc1)C(=O)N[C@H](C(=O)N[C@@H](Cc1c[nH]cn1)C(=O)N1CCC[C@H]1C(=O)O[C@@H](C)C(=O)O)C1CCCCC1)C(C)C [Sar^1, Chg^5, Lac^8 --AII] (H-[Sar]RVY[Chg]HP[Lac]-OH) | – | – | initial hypertensive activity compared with Saralasin (FIG. 2) [6]: significantly lower initial hypertensive activity than Salarasine |
| CC[C@H](C)[C@H](NC(=O)[C@H](Cc1ccc(O)cc1)NC(=O)[C@@H](NC(=O)[C@H](CCCNC(=N)N)NC(=O)CNC)C(C)C)C(=O)N[C@@H](Cc1c[nH]cn1)C(=O)N1CCC[C@H]1C(=O)N[C@H](C(=O)OC)[C@@H](C)CC [Sar^1, Ile^8 --AII--OMe, reference compound] | – | 8.98 | – |
